Test results reported in patent publication US20180118786A1, “NOVEL lNHIBITORS OF THE ENZYME ACTIVATED FACTOR XII (FXIIA)” (ECOLE POLYTECHNIQUE FEDERALE DE LAUSANNE (EPFL), priority 2015, published 2018).
Starred links: 1 amine or outer side, 2 acyl side, 3 side chain; linkers in the order of their positions; H or OH if unused. Positions of bridges follow the written chain, without caps; N, C: chain ends. Non-standard residues stand in square brackets, D forms with d. Residues, ends and D or L forms follow the SMILES beside them. TATA = O=C(CC[*:1])N1CN(C(=O)CC[*:2])CN(C(=O)CC[*:3])C1; Phe(4-F) = N[C@@H](Cc1ccc(F)cc1)C(=O)O; β3hR = N=C(N)NCCC[C@H](N)CC(=O)O

Legend:
FXIIa = conditions: cited from earlier work
[1] = system: intrinsic pathway of coagulation; experiment: aPTT in human plasma (Example 1); type: biochemical
Procedure: (§1) aPTT, PT and FXII coagulant activity (FXII:c) measurements Coagulation times (aPTT, PT) and FXIIa activity were determined in human plasma using an automated blood coagulation analyzer (Sysmex CS-5100, Siemens, Eschborn, Germany) with according to the manufacturer's instructions (Siemens). Extrinsic coagulation was triggered with Innovin® (recombinant human tissue factor, synthetic phospholipids and calcium in stabilized HEPES buffer system; Dade Behring/Simens). Intrinsic coagulation was triggered with Pathromtin* SL (Siemens). Human plasma used in this study was derived from a pool of fresh frozen plasma units provided by the Service Regional Vaudois de Transfusion Sanguine, Switzerland.
(§2) Coagulation times (aPTT, PT) and FXIIa activity were determined, at least in duplicate, in human plasma using an automated blood coagulation analyzer (Sysmex CA-7000) with standard reagents according to the manufacturer's instructions (Siemens Healthcare, Eschborn, Germany). Human plasma used in this study was derived from a pool of fresh frozen plasma units provided by the Service Regional Vaudois de Transfusion Sanguine, Switzerland.

[2] = system: thrombin generation in platelet poor plasma; experiment: Thrombin generation assay by CAT, TF-triggered or without trigger; type: biochemical, human; set-up: lag time: unit not given here
Procedure: (§3) Thrombin generation was performed as previously described with some modifications.30 In brief, 60 μL platelet poor plasma (PPP), 20 μL FXIIa inhibitor/HA buffer (Hepes 20 mM, NaCl 140 mM, pH 7.4, 5 mg/mL BSA), and 20 μL PPP reagent, PPP LOW reagent, MP reagent or Actin FS (1:170 diluted in HA buffer) were mixed in a 96-well microtiter plate (Immulon 2HB; Thermo Fisher Scientific) and incubated for 15 min at 37° C. Thrombin generation was triggered by the addition of 20 μL of substrate/calcium chloride buffer (FLUKA) at 37° C. Samples were tested in triplicate for each condition. Fluorogenic thrombin substrate hydrolysis was measured every 20 s for 120 min on a microplate fluorometer (Fluoroskan Ascent FL; Thermo Fisher Scientific) with a 390/460-nm (excitation/emission) filter set. Data analysis was performed on the Thrombinoscope software (Synapse By). PPP reagent (TF […], PL 4 μM), PPP LOW reagent (TF […], PL 4 μM), MP reagent (PL 4 μM), thrombin calibrator and FLUKA were purchased from Synapse By.
Venous blood was collected from healthy volunteers by antecubital venipuncture with 19-gauge needles in 3,2% (w/v) citrated Monovette plastic tubes. In order to minimize contact activation, the first collection tube containing EDTA was discarded according to standard procedures. […] Blood was then processed to PPP by an initial centrifugation step at 2,000 g for 5 min followed by a second centrifugation step at 10,000 g for 10 min. Plasma aliquots were stored at −80 until analysis.

human β-FXIIa = target: T1, human β-FXIIa (Homo sapiens, UniProt P00748); experiment: Protease inhibition assay with fluorogenic substrate (Example 1); type: biochemical
T1 construct: human β-FXIIa, a naturally occurring proteolytic product of FXIIa comprising only the catalytic domain; purchased Molecular Innovations HFXIIAB
Procedure: The inhibitory activity of bicyclic peptides was determined by incubation with proteases and quantification of their residual activity with a fluorogenic substrate. Final concentration of human b-FXIIa (HFXIIAB; Molecular Innovations) and mouse α-FXIIa (MFXIIA; Molecular Innovations) was 10 nM. Dilutions of peptides were prepared ranging from 0.2-200 mM. Fluorescence intensity was measured with an Infinite M200Pro fluorescence plate reader (excitation at 355 nm, emission at 460 nm; Tecan, Männedorf, Switzerland). The reactions were performed at RT. Sigmoidal curves were fitted to the data using the following dose response equation wherein x=peptide concentration, y=% activity of reaction without peptide, A1=100%, A2=0%, p=1. IC50 values were derived from the fitted curve.
The inhibitory constant Ki was calculated according to the equation of Cheng and Prusoff^29 Ki=/050/(1+([S]0/Km) wherein IC50 is the functional strength of the inhibitor, [S]0 is the total substrate concentration, and Km is the Michaelis-Menten constant.

FXII activity = target: T2, FXII activity (Mus musculus, UniProt Q80YC5); experiment: Inhibition of FXII activity in vivo; set-up: species or system BALB/c mice; conditions: mice
T2 construct: from tissue; host or cells: plasma of BALB/c mice after injection
T2 sequence (Q80YC5 20-597): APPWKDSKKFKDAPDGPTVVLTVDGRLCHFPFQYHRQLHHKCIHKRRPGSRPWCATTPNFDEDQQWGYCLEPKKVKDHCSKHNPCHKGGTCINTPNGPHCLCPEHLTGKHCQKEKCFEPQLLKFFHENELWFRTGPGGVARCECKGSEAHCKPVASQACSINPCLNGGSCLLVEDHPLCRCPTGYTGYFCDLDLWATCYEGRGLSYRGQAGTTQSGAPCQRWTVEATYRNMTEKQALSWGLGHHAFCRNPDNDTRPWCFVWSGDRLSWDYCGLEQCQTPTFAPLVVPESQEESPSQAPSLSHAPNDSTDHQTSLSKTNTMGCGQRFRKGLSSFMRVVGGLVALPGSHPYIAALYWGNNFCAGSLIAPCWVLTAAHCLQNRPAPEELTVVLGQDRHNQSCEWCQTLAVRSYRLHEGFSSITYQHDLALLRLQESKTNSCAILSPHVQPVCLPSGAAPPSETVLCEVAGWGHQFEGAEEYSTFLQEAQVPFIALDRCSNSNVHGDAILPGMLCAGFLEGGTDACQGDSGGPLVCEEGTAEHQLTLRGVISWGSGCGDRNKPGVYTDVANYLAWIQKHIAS
Procedure: Female BALB/c mice were anesthetized with 125 mg/kg pentobarbital. […] Five minutes later, blood was collected from the vena cava at a 1:9 blood to citrate ratio. Plasma was prepared by centrifugation at 2,400 g 10 minutes at RT. FXIIa activity was assessed as described above.

in vitro = conditions: human, plasma
Procedure: (§6) Peptide (2 μl of 2 mM in H2O) was added to 398 μl human plasma (final peptide concentration was 10 μM in 400 μl final volume). The mixture was incubated in the water bath at 37° C. At 8 different time points (0 h, 30 min, 1 h, 2 h, 4 h, 8 h, 12 h, 24 h and in some cases 48 h) a sample of 30 μl was removed, diluted to 200 μl with the same buffer used for protease inhibition assay (see above) and heat-inactivated for 20 min at 65° C. During this step proteases present in plasma are being inactivated, that would otherwise interfere with the subsequently performed enzymatic assay. […] Before analysis, plasma samples were centrifuged for 5 min at 16′000 g and the supernatant was collected. A twofold dilution series ranging from 0.0005-0.5 μM was prepared. IC50 values were derived from the fitted curve using the equation indicated above. Residual inhibition in % was calculated using the following formula: IC50, 0h/IC50, xh*100 wherein IC50, 0h is the functional strength of the inhibitor at time point 0 and IC50, xh the functional strength of inhibitor after one of the different plasma incubation period mentioned above.
(§7) The activity of the plasma proteases was heat-inactivated by incubation of the samples at 65° C. for 10 minutes.

FXII = target: T3, FXII (Homo sapiens, UniProt P00748); experiment: FXII coagulant activity (FXII:c) in human plasma; type: biochemical; conditions: 50 μM
T3 construct: from tissue; host or cells: pooled fresh frozen human plasma
T3 sequence (P00748 20-615): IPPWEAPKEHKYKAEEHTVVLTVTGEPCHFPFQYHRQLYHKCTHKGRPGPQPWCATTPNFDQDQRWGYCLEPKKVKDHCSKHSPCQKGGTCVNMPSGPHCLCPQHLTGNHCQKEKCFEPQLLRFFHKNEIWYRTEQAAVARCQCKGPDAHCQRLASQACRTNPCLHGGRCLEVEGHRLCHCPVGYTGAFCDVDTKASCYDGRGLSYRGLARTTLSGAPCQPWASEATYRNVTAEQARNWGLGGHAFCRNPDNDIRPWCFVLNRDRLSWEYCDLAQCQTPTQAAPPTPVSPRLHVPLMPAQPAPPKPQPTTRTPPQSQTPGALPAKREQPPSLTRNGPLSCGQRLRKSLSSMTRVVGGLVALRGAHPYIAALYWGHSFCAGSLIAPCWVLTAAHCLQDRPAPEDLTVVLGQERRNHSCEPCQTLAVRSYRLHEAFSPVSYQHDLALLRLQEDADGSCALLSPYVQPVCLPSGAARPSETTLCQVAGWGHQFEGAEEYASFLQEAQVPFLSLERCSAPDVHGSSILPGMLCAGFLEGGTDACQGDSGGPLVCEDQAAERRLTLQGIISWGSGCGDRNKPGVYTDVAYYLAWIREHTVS
Procedure: as §1, §2

extrinsic pathway = experiment: PT in human plasma (Example 1); type: biochemical; conditions: 40 μM
Procedure: as §1, §2

[3] = system: thrombin generation in platelet poor plasma; experiment: Thrombin generation assay by CAT, TF-triggered or without trigger; type: biochemical, human; conditions: 1 pM TF, 100 μg/mL inhibitor
trypsin [4] = target: T4, trypsin (Homo sapiens, UniProt P07477); experiment: Specificity FXII618 vs CTI, trypsin; type: biochemical
[5] = system: intrinsic pathway (contact activation); experiment: Thrombin generation assay by CAT triggered by ellagic acid; type: biochemical, human; conditions: ellagic acid trigger, 20 μg/mL
Procedure: as §3

[6] = system: intrinsic coagulation pathway; experiment: aPTT in human plasma (Example 2); type: biochemical
Procedure: Coagulation times (aPTT, PT) were determined in human plasma using a blood coagulation analyzer (STart. Hemostasis coagulation analyzer, Diagnostica Stago). Extrinsic coagulation was triggered with Innovin (recombinant human tissue factor, synthetic phospholipids and calcium in stabilized HEPES buffer system; Dade Behring; Siemens). Intrinsic coagulation was triggered with Pathromtin* SL (Siemens). Pooled normal human plasma used in this study was provided by Innovative research (USA).
The ability to selectively suppress the intrinsic coagulation pathway was assessed in in vitro coagulation assays. Activated partial thromboplastin time (aPTT) and prothrombin time (PT) measure the time to coagulation upon initiation of coagulation either via the intrinsic (aPTT) or the extrinsic pathway (PT). These tests have been performed in human plasma in the presence of different concentrations of FXIIa-inhibitors. Selective FXIIa inhibition is expected to increase aPTT but not PT. […] At a concentration of 5 μM peptide inhibitor no coagulation via the intrinsic pathway occurred within 120 s. Additionally, there was a correlation between inhibitory activity against FXIIa and extent of aPTT prolongation.

Plasma stability assay = conditions: human
Procedure: as §6, §7

trypsin [7] = target: T4, trypsin; experiment: Specificity testing (Example 2), trypsin; type: biochemical; set-up: purchased Molecular Innovations
Procedure: (§4) For the specificity testing the following final concentrations of human serine proteases were used: tPA (Molecular Innovations) 7.5 nM, uPA (Molecular Innovations) 1.5 nM, factor XIa (Innovative Research, Novi, Mich., U.S.) 6 nM, PK (Innovative Research) 0.25 nM, thrombin (Molecular Innovations) 1 nM, plasmin (Molecular Innovations) 2.5 nM, trypsin (Molecular Innovations) 0.05 nM, factor VIIa (Haematologic Technologies Inc.) 50 nM and factor Xa (Haematologic Technologies Inc,) 6 nM.
(§5) Dilutions of peptides were prepared ranging from 0.04 to 40 μM.

[8] = system: structurally related or functionally important proteases; experiment: Specificity testing (Example 2), other proteases; type: biochemical, human
Procedure: as §4, §5

[9] = absence of extrinsic- or intrinsic-specific trigger, 100 μg/mL inhibitor

Structure (SMILES): N=C(N)NCCCC(NC(=O)C(Cc1ccccc1)NC(=O)C1CCCN1)C(=O)CCl [PCK, D-Pro-Phe-Arg chloromethyl ketone, reference compound]
- IC50 (FXIIa): 180 nM

Structure (SMILES): CC(C)C[C@@H]1NC(=O)[C@H](CCC(N)=O)NC(=O)[C@H](CCCNC(=N)N)NC(=O)[C@@H]2CSCCC(=O)N3CN(CN(C3)C(=O)CCSC[C@H](NC(=O)[C@@H](N)CCCNC(=N)N)C(=O)N[C@@H](Cc3ccccc3)C(=O)N[C@@H](CCCNC(=N)N)C(=O)N[C@@H](CC(C)C)C(=O)N3CCC[C@H]3C(=O)N2)C(=O)CCSC[C@@H](C(=O)N[C@@H](CCCNC(=N)N)C(N)=O)NC(=O)[C@H](CCCNC(=N)N)NC1=O [FXII618]
- aPTT ([1]; citrated platelet poor plasma, 100 μg/mL inhibitor): > 170 s
- aPTT ([1]; human plasma, 40 μM): > 170 s
- lag time ([2]; 0.25 pM TF, 100 μg/mL inhibitor): 12.3±0.3
- lag time [2, 9]: 55.8±3.7
- peak [2, 9]: 60.3±0.8
- effect on TF-induced thrombin generation ([2]; high concentration of TF, 100 μg/mL inhibitor): did not affect TF-induced thrombin generation
- thrombin activation ([2]; inhibitor added to whole blood immediately after sampling, no trigger): completely block thrombin activation
- more potent than PCK (human β-FXIIa; compared to PCK): around 8 fold
- more potent than inhibitor 44 (human β-FXIIa; compared to small molecule FXIIa inhibitor 44): > 200 fold
- improvement in inhibiting human FXIIa (human β-FXIIa; in comparison to parent FXII516): 8 fold
- PT (FXII activity; 3.5 mg/kg FXII618 combined with 3.5 mg/kg PK128): 7.1 ± 0.2 s
- FXII activity (FXII activity; 3.5 mg/kg FXII618 combined with 3.5 mg/kg PK128 r.o., blood after five minutes): 49.7+/−13.9%
- half-life at 10 μM (in vitro): 3.9 ± 1.9 h
- FXII coagulant activity (FXII:c) (FXII): < 5%
- effect on extrinsic pathway (PT) (extrinsic pathway): without affecting the extrinsic pathway
- effect on thrombin generation [3]: no significant effect
- inhibition of trypsin (trypsin [4]; at a concentration as high as 1000 nM): no inhibition
- trypsin inhibition weaker compared to CTI (trypsin [4]; compared to CTI): around 100 fold
- reduction of endogenous thrombin potential (ETP) [5]: > 90%
- reduction of peak [5]: > 90%

Structure (SMILES): CC(C)C[C@@H]1NC(=O)[C@H](CCC(N)=O)NC(=O)[C@H](CCCNC(=N)N)NC(=O)[C@@H]2CSCCC(=O)N3CN(CN(C3)C(=O)CCSC[C@H](NC(=O)[C@@H](N)CCCNC(=N)N)C(=O)N[C@@H](Cc3ccc(F)cc3)C(=O)N[C@@H](CCCNC(=N)N)C(=O)N[C@@H](CC(C)C)C(=O)N3CCC[C@H]3C(=O)N2)C(=O)CCSC[C@@H](C(=O)N[C@@H](CCCNC(=N)N)C(N)=O)NC(=O)[C@H](CCCNC(=N)N)NC1=O [peptide 61]
- aPTT prolongation compared with peptide 1 [6]: significantly increased aPTT prolongation

Structure (SMILES): CC(C)C[C@@H]1NC(=O)[C@H](CCC(N)=O)NC(=O)[C@H](Cc2c[nH]cn2)NC(=O)[C@@H]2CSCCC(=O)N3CN(CN(C3)C(=O)CCSC[C@H](NC(=O)[C@@H](CO)NC(=O)[C@H](N)CCCNC(=N)N)C(=O)N[C@@H](Cc3ccc(F)cc3)C(=O)N[C@@H](CCCNC(=N)N)C(=O)N[C@@H](CC(C)C)C(=O)N3CCC[C@H]3C(=O)N2)C(=O)CCSC[C@@H](C(N)=O)NC(=O)C[C@H](CCCNC(=N)N)NC1=O [JS33-R] (H-[dR][dS]C[Phe(4-F)]RLPCHQL[β3hR]C-NH2; linker 3-8-13 via TATA; N-terminus and C-terminus assumed)
- half-life at 10 μM (Plasma stability assay): 127 h

Structure (SMILES): CC(C)C[C@@H]1NC(=O)[C@H](CCC(N)=O)NC(=O)[C@H](CCCNC(=N)N)NC(=O)[C@@H]2CSCCC(=O)N3CN(CN(C3)C(=O)CCSC[C@H](NC(=O)[C@@H](N)CCNC(=N)N)C(=O)N[C@@H](Cc3ccc(F)cc3)C(=O)N[C@@H](CCCNC(=N)N)C(=O)N[C@@H](CC(C)C)C(=O)N3CCC[C@H]3C(=O)N2)C(=O)CCSC[C@@H](C(=O)N[C@@H](CCCNC(=N)N)C(N)=O)NC(=O)[C@H](CCCNC(=N)N)NC1=O [peptide 73]
- aPTT prolongation compared with peptide 1 [6]: significantly increased aPTT prolongation
- selectivity over trypsin (trypsin [7]): 300 fold
- selectivity over other plasma proteases [8]: ≥ 11,000 fold
- inhibition of eight of the ten proteases ([8]; highest concentration tested (40 μM)): less than 20%
- half-life at 10 μM (in vitro): 15.5 ± 3.9 h
